Laboratory results: patent EP0291007A1, “Rhodanine derivative, process for preparing the same and pharmaceutical composition containing the same” (KAKEN PHARMACEUTICAL CO., LTD., priority 1987, dated 1988)

System: accumulation of sorbitol in nervous tissues
Assay: Inhibiting activity of the accumulation of sorbitol in nervous tissues of streptozotocin-diabetic rats
Type: in vivo, SD male rats
Details: comparison compounds with linear alkyl group at 5-position; dose not stated

Row | SMILES | inhibition of the accumulation of sorbitol
1 | CCCCC1SC(=S)N(CC(=O)O)C1=O (centres unmarked) [3-carboxymethyl-5-n-butylrhodanine] | hardly inhibited the accumulation of sorbitol
2 | CCCCCCCC1SC(=S)N(CC(=O)O)C1=O (centres unmarked) [3-carboxymethyl-5-n-heptylrhodanine] | hardly inhibited the accumulation of sorbitol
